Measurements as given in ChEMBL document CHEMBL5505992, “Novel membrane-targeting isoxanthohumol-amine conjugates for combating methicillin-resistant Staphylococcus aureus (MRSA) infections” (Eur J Med Chem, 2024).
Calls of active or inactive are those of the source. No cut-off for these calls is given here.

Key:
Cell membrane [1] = experiment: Induction of cell membrane permeability in methicillin-resistant Staphylococcus aureus clinical isolate MRSA-16 assessed as dead cells (Q1 region) at 8 ug/ml incubated for 2 hrs by SYTO 9 and PI staining based flow cytometry analysis (reference value: 0.00%); type: cell membranes; conditions: dose 8.0 µg/ml
Staphylococcus aureus [2] = experiment: Antibacterial activity against methicillin-resistant Staphylococcus aureus infected in Kunming mouse skin infection model assessed as reduction in number of bacterial cells at 4 to 8 mg/kg,sc measured after 24 hrs; type: functional, organism-based; conditions: dose 4-8 mg/kg
Staphylococcus aureus [3] = experiment: Antibacterial activity against Staphylococcus aureus ATCC 29213 at sub-inhibitory concentration measured after 20 passages for 16 to 18 hrs; type: functional, organism-based; conditions: time 16-18 hrs
[4] = Toxicity in Kunming mouse assessed as effect on kidney at 10 mg/kg, sc measured after 24 hrs by H and E staining based analysis; type: organism-based; conditions: in vivo
Cell membrane [5] = experiment: Induction of cell membrane depolarization in methicillin-resistant Staphylococcus aureus clinical isolate MRSA-16 assessed as fold increase in fluorescence intensity at 32 ug/ml measured every 2 mins for 20 mins by DISC3(5) staining based analysis; type: cell membranes; conditions: dose 32.0 µg/ml
[6] = Toxicity in Kunming mouse assessed as effect on spleen at 10 mg/kg, sc measured after 24 hrs by H and E staining based analysis; type: organism-based; conditions: in vivo
Cell membrane [7] = experiment: Disruption of cell membrane in methicillin-resistant Staphylococcus aureus clinical isolate MRSA-16 assessed as increase in intracellular ROS production at upto 64 ug/ml measured after 40 mins by DCFH-DA dye based fluorescence assay; type: cell membranes; conditions: dose <= 64.0 µg/ml
[8] = Toxicity in Kunming mouse assessed as effect on heart at 10 mg/kg, sc measured after 24 hrs by H and E staining based analysis; type: organism-based; conditions: in vivo
[9] = Toxicity in Kunming mouse assessed as histopathological abnormalities in skin at 10 mg/kg, sc measured after 24 hrs by H and E staining based analysis; type: organism-based; conditions: in vivo
Staphylococcus aureus [10] = experiment: Antibacterial activity against methicillin-resistant Staphylococcus aureus clinical isolate MRSA-22 measured after 16 to 18 hrs by CLSI method; type: functional; conditions: time 16-18 hrs
Staphylococcus aureus [11] = experiment: Antibacterial activity against methicillin-resistant Staphylococcus aureus infected in Kunming mouse skin infection model assessed as effect on skin abscesses in subcutaneous tissue at 8 mg/kg,sc measured after 24 hrs; type: functional, organism-based
Staphylococcus aureus [12] = experiment: Antibacterial activity against methicillin-resistant Staphylococcus aureus in presence of phosphatidylethanolamine; type: functional, organism-based
Cell membrane [13] = experiment: Induction of cell membrane permeability in methicillin-resistant Staphylococcus aureus clinical isolate MRSA-16 assessed as decrease in intact cells (Q3 region) at 4 ug/ml incubated for 2 hrs by SYTO 9 and PI staining based flow cytometry analysis (reference value: 99.07%); type: cell membranes; design: scale not given: the % may be the effect or the level left; conditions: dose 4.0 µg/ml
Cell membrane [14] = experiment: Disruption of cell membrane in methicillin-resistant Staphylococcus aureus clinical isolate MRSA-16 assessed as fold increase in intracellular ROS production at 64 ug/ml measured after 40 mins by DCFH-DA dye based fluorescence assay; type: cell membranes; conditions: dose 64.0 µg/ml
[15] = Toxicity in Kunming mouse assessed as histopathological abnormalities in heart at 10 mg/kg, sc measured after 24 hrs by H and E staining based analysis; type: organism-based; conditions: in vivo
[16] = Toxicity in Kunming mouse assessed as histopathological abnormalities in liver at 10 mg/kg, sc measured after 24 hrs by H and E staining based analysis; type: organism-based; conditions: in vivo
Staphylococcus aureus [17] = experiment: Antibacterial activity against Staphylococcus aureus ATCC 29213 measured after 20 passages for 16 to 18 hrs; type: functional; conditions: time 16-18 hrs
[18] = Toxicity in Kunming mouse assessed as histopathological abnormalities in kidney at 10 mg/kg, sc measured after 24 hrs by H and E staining based analysis; type: organism-based; conditions: in vivo
[19] = Toxicity in Kunming mouse assessed as effect on liver at 4 to 8 mg/kg, sc measured after 24 hrs by H and E staining based analysis; type: organism-based; conditions: in vivo, dose 4-8 mg/kg
Staphylococcus aureus [20] = experiment: Bactericidal activity against methicillin-resistant Staphylococcus aureus incubated with 3 to 6 hrs compound treated plasma; type: functional; conditions: time 3-6 hrs
Staphylococcus aureus [21] = experiment: Antibacterial activity against methicillin-resistant Staphylococcus aureus infected in Kunming mouse skin infection model assessed as effect on skin abscesses at 4 mg/kg,sc measured after 24 hrs; type: functional, organism-based
Cell membrane [22] = experiment: Induction of cell membrane permeability in methicillin-resistant Staphylococcus aureus clinical isolate MRSA-16 assessed as increase in damaged cells (Q2 region) at 64 ug/ml incubated for 2 hrs by SYTO 9 and PI staining based flow cytometry analysis (reference value: 0.91%); type: cell membranes; conditions: dose 64.0 µg/ml
[23] = Toxicity in Kunming mouse assessed as swelling in back of skin at 20 mg/kg, sc measured after 24 hrs; type: organism-based; conditions: in vivo
Staphylococcus aureus [24] = experiment: Antibacterial activity against methicillin-resistant Staphylococcus aureus infected in Kunming mouse skin infection model assessed as decrease in bacterial load at 8 mg/kg,sc measured after 24 hrs relative to control; type: functional; design: scale not given: the % may be the effect or the level left
Cell membrane [25] = experiment: Induction of cell membrane permeability in methicillin-resistant Staphylococcus aureus clinical isolate MRSA-16 assessed as dead cells (Q1 region) at 32 ug/ml incubated for 2 hrs by SYTO 9 and PI staining based flow cytometry analysis (reference value: 0.00%); type: cell membranes; conditions: dose 32.0 µg/ml
[26] = Toxicity in Kunming mouse assessed as survival rate at 80 mg/kg, sc measured after 24 hrs relative to control; type: organism-based; conditions: in vivo
[27] = Toxicity in Kunming mouse assessed as effect on spleen at 4 to 8 mg/kg, sc measured after 24 hrs by H and E staining based analysis; type: organism-based; conditions: in vivo, dose 4-8 mg/kg
[28] = Toxicity in Kunming mouse assessed as histopathological abnormalities in lung at 4 to 8 mg/kg, sc measured after 24 hrs by H and E staining based analysis; type: organism-based; conditions: in vivo, dose 4-8 mg/kg
Cell membrane [29] = experiment: Induction of cell membrane permeability in methicillin-resistant Staphylococcus aureus clinical isolate MRSA-16 assessed as dead cells (Q1 region) at 64 ug/ml incubated for 2 hrs by SYTO 9 and PI staining based flow cytometry analysis (reference value: 0.00%); type: cell membranes; conditions: dose 64.0 µg/ml
Staphylococcus aureus [30] = experiment: Induction of morphological changes in methicillin-resistant Staphylococcus aureus clinical isolate MRSA-16 assessed as appearance of uneven cell surface at 16 ug/ml incubated for 4 hrs by SEM analysis; type: functional, organism-based; conditions: dose 16.0 µg/ml
Cell membrane [31] = experiment: Induction of cell membrane permeability in methicillin-resistant Staphylococcus aureus clinical isolate MRSA-16 assessed as decrease in intact cells (Q3 region) at 16 ug/ml incubated for 2 hrs by SYTO 9 and PI staining based flow cytometry analysis (reference value: 99.07%); type: cell membranes; design: scale not given: the % may be the effect or the level left; conditions: dose 16.0 µg/ml
Staphylococcus aureus [32] = experiment: Bactericidal activity against Staphylococcus aureus ATCC 29213 assessed as bacterial killing at 4 times MIC measured within 4 to 8 hrs by time kill assay relative to control; type: functional; conditions: time 4-8 hrs
Staphylococcus aureus [33] = experiment: Antibacterial activity against methicillin-resistant Staphylococcus aureus infected in Kunming mouse skin infection model assessed as decrease in bacterial load at 8 mg/kg,sc measured after 24 hrs; type: functional
[34] = Toxicity in Kunming mouse assessed as histopathological abnormalities in spleen at 4 to 8 mg/kg, sc measured after 24 hrs by H and E staining based analysis; type: organism-based; conditions: in vivo, dose 4-8 mg/kg
Staphylococcus aureus [35] = experiment: Antibacterial activity against Staphylococcus aureus ATCC 29213 measured after 16 to 18 hrs by CLSI method; type: functional; conditions: time 16-18 hrs
Cell membrane [36] = experiment: Disruption of cell membrane in methicillin-resistant Staphylococcus aureus clinical isolate MRSA-16 assessed as increase in intracellular DNA leakage incubated for 4 hrs by microspectrophotometer analysis; type: cell membranes

CCCC[N+](C)(CCCC)CCCCCOc1ccc(C2CC(=O)c3c(OC)cc(OCCCCC[N+](C)(CCCC)CCCC)c(CC=C(C)C)c3O2)cc1.[I-].[I-] (stereo unspecified)
Activity (Cell membrane [1]): 2.94%
Activity (Staphylococcus aureus [2]): Active
Activity (Staphylococcus aureus [3]): inactive
Activity [4]: Non-Toxic
fold change (FC) (Cell membrane [5]): 4.5
Activity [6]: Non-Toxic
Activity (Cell membrane [7]): Active
Activity [8]: Non-Toxic
Activity [9]: Non-Toxic
MIC (Staphylococcus aureus [10]): 1 µg/mL
Activity (Staphylococcus aureus [11]): inactive
Activity (Staphylococcus aureus [12]): Active
Activity (Cell membrane [13]): 60.8%
fold change (FC) (Cell membrane [14]): 4
Activity [15]: Non-Toxic
Activity [16]: Non-Toxic
MIC (Staphylococcus aureus [17]): 1 µg/mL
Activity [18]: Non-Toxic
Activity [19]: Non-Toxic
MBC (Staphylococcus aureus [20]): 4 µg/mL
Activity (Staphylococcus aureus [21]): Active
Activity (Cell membrane [22]): 0.02%
Activity [23]: Toxic
Activity (Staphylococcus aureus [24]): 99.99%
Activity (Cell membrane [25]): 99.2%
survival at 24 h [26]: 40%
Activity [27]: Non-Toxic
Activity [28]: Non-Toxic
Activity (Cell membrane [29]): 100%
Activity (Staphylococcus aureus [30]): Active
Activity (Cell membrane [31]): 1.58%
Activity (Staphylococcus aureus [32]): 100%
Activity (Staphylococcus aureus [33]): 5 log10CFU/g
Activity [34]: Non-Toxic
MIC (Staphylococcus aureus [35]): 1 µg/mL
Activity (Cell membrane [36]): Active
